Results reported in patent publication US11945792B2, “Crystalline forms of 6-(1-acryloylpiperidin-4-yl)-2-(4-phenoxyphenyl)nicotinamide” (BEIJING INNOCARE PHARMA TECH CO., LTD., priority 2018, dated 2024).
Values after ≈ are worked out from the molar mass of the structure shown. “Also recorded” adds a separate entry of the source.

Tests used:
Assay type in all cases: physicochemical
[1] = Equilibrium solubility in water at room temperature for 24 hours; conditions: for Form Change: residual solids by XRPD after 24 hours in water at room temperature; for pH: solubility test in water, 24 hours; for pH / Solubility: room temperature; for Solubility: water, 24 hours equilibrium
Experimental: 10 mg of Type A, B, D, and F samples each was added into a 1.5-mL glass vial, and 1.0 mL of water was then added. The mixture was rolled at 25 rpm at room temperature for 24 hours. The suspension was centrifuged and filtered to isolate the supernatant for HPLC concentration and purity testing and the residual solids were characterized by XRPD.

[2] = Hygroscopicity assessment by dynamic vapor sorption (DVS); conditions: for hygroscopicity class: Chinese Pharmacopeia 2010 definition; for hygroscopicity class / water uptake: 25° C., 80% RH; for form change after DVS test: XRPD before and after DVS test
Experimental: XRPD studies was performed using a Panalytical Empyrean X-ray powder diffractometer. The parameters of the X-ray powder diffraction of the present disclosure are as follows: • X-ray Reflection: Cu, Kα • Kα1 (Å): 1.540598; Kα2 (Å): 1.544426 • Kα2/Kα1 intensity ratio: 0.50 • Voltage: 45 (kV) • Current: 40 (mA) • Scanning range: from 3.0 degree to 40.0 degree • DSC data in the present disclosure were acquired by a TA Q2000. The parameters of the DSC method of the present disclosure were as follows: • Heating rate: 10° C./min • Purge gas: nitrogen • TGA data in the present disclosure are acquired by a TA Q5000. The parameters of the TGA method of the present disclosure were as follow: • Heating rate: 10° C./min • Purge gas: nitrogen • Dynamic vapor sorption (DVS) data in the present disclosure were acquired by a SMS (Surface Measurement Systems) DVS Intrinsic. The parameters of the dynamic vapor sorption (DVS) method of the present disclosure were as follows: • Temperature: 25° C. • Gas and flow rate: nitrogen, 200 mL/min • dm/dt: 0.002%/min • RH range: 0% RH-95% RH Approximate 10 mg of Type B sample in the present disclosure was assessed by hygroscopicity using a dynamic vapor sorption (DVS) instrument, and tested by XRPD before and after DVS test.

[3] = Solid-state stability assessment on storage (XRPD and HPLC purity)
Experimental: Approximate 10 mg of Type A sample was added into each 1.5-mL glass vial and stored at 80° C. (closed) for 1 day, 25° C./60% RH and 40° C./75% RH (open) for 1 week, then tested by XRPD and HPLC purity. Approximate 4 mg of Type B sample was added into each 1.5-mL glass vial and stored at 80° C. (closed) for 1 day, 25° C./60% RH and 40° C./75% RH (open) for 1 week, then tested by XRPD and HPLC purity. Approximate 4 mg of Type D sample was added into each 1.5-mL glass vial and stored at 25° C./60% RH and 40° C./75% RH (open) for 1 week, then tested by XRPD and HPLC purity. Approximate 7 mg of Type F sample was added into each 1.5-mL glass vial and stored at 80° C. (closed) for 1 day, 25° C./60% RH and 40° C./75% RH (open) for 1 week, then tested by XRPD and HPLC purity.

[4] = as above; conditions: 92.5% RH for about 17 days
[5] = Interconversion of crystal forms via heating and slurry competition experiments; conditions: for form after slurry competition: slurry in various solvent systems
Description: Relationships among Type A-F crystal forms were investigated via heating and slurry competition experiments.

[6] = 25° C./60% RH and 40° C./75% RH (open) 1 week
[7] = 80° C. (closed) 1 day and 25° C./60% RH, 40° C./75% RH (open) 1 week
[8] = ACN, EtOH, MeOH/H2O (1:1, v/v) and H2O from RT to 50/70° C.

C=CC(=O)N1CCC(c2ccc(C(N)=O)c(-c3ccc(Oc4ccccc4)cc3)n2)CC1 [Type A, 6-(1-acryloylpiperidin-4-yl)-2-(4-phenoxyphenyl)nicotinamide]
Form Change [1]: Yes, to Type B | pH [1]: 7.4 | hygroscopicity class ([2]; DVS): hygroscopic | Purity/initial purity ([3]; 25° C./60% RH (open)/1 week): 100.0% | stability of the form after storage [3, 6]: relatively good physical and chemical stability | Purity/initial purity ([3]; 40° C./75% RH (open)/1 week): 100.1% | change in purity after storage [3, 7]: no decrease in purity | stability of the form after storage [3, 7]: did not change; also recorded: stable | Purity/initial purity ([3]; 80° C. (closed)/1 day): 100.0% | crystallinity after storage [4]: decreased | form after slurry [5, 8]: converted to Type F | form after slurry competition [5]: converted into anhydrate Type F

C=CC(=O)N1CCC(c2ccc(C(N)=O)c(-c3ccc(Oc4ccccc4)cc3)n2)CC1 [Type B, 6-(1-acryloylpiperidin-4-yl)-2-(4-phenoxyphenyl)nicotinamide]
Form Change [1]: No | pH [1]: 7.7 | Solubility [1]: 0.006 mg/mL (≈ 14 µM) | water uptake ([2]; DVS): 0.5% | hygroscopicity class ([2]; DVS): slightly hygroscopic | form change after DVS test [2]: did not change; also recorded: no form change | Purity/initial purity ([3]; 25° C./60% RH (open)/1 week): 99.5% | Purity/initial purity ([3]; 40° C./75% RH (open)/1 week): 99.7% | change in purity after storage [3, 7]: no decrease in purity | stability of the form after storage [3, 7]: did not change; also recorded: stable | Purity/initial purity ([3]; 80° C. (closed)/1 day): 99.7% | form after slurry [5, 8]: converted to Type F | form after slurry competition [5]: converted into anhydrate Type F

C=CC(=O)N1CCC(c2ccc(C(N)=O)c(-c3ccc(Oc4ccccc4)cc3)n2)CC1 [Type C, 6-(1-acryloylpiperidin-4-yl)-2-(4-phenoxyphenyl)nicotinamide]
form after slurry ([5]; H2O at 50° C. for about 21 days): convert to anhydrate Type B

C=CC(=O)N1CCC(c2ccc(C(N)=O)c(-c3ccc(Oc4ccccc4)cc3)n2)CC1 [Type D, 6-(1-acryloylpiperidin-4-yl)-2-(4-phenoxyphenyl)nicotinamide]
Form Change [1]: No | pH [1]: 8.0 | Solubility [1]: 0.018 mg/mL (≈ 42.1 µM) | DVS finding ([2]; DVS): relative stable hydrate | Purity/initial purity ([3]; 25° C./60% RH (open)/1 week): 99.9% | change in purity after storage [3, 6]: no significant decrease in purity | stability of the form after storage [3, 6]: did not change; also recorded: stable | Purity/initial purity ([3]; 40° C./75% RH (open)/1 week): 99.9% | Final form ([3]; 80° C. (closed)/1 day, XRPD): converted to a mixture of Type B and D; also recorded: converted to the mixture of Type B and D | form after slurry ([5]; MeOH/H2O (aw~0.5) and EtOH/H2O (aw=0~1) at RT): converted to anhydrate Type F | form after dehydration ([5]; dehydration at elevated temperature): converted to anhydrate Type E | form after slurry competition [5]: converted into anhydrate Type F

C=CC(=O)N1CCC(c2ccc(C(N)=O)c(-c3ccc(Oc4ccccc4)cc3)n2)CC1 [Type F, 6-(1-acryloylpiperidin-4-yl)-2-(4-phenoxyphenyl)nicotinamide]
Form Change [1]: No | pH [1]: 6.9 | water uptake ([2]; DVS): 1.2% | hygroscopicity class ([2]; DVS): slightly hygroscopic | form change after DVS test [2]: did not change; also recorded: no form change | Purity/initial purity ([3]; 25° C./60% RH (open)/1 week): 100.0% | stability of the form after storage [3, 6]: relatively good physical and chemical stability | Purity/initial purity ([3]; 40° C./75% RH (open)/1 week): 100.0% | change in purity after storage [3, 7]: no decrease in purity | stability of the form after storage [3, 7]: did not change; also recorded: stable | Purity/initial purity ([3]; 80° C. (closed)/1 day): 100.0% | relative thermodynamic stability ([5]; between RT and 50/70° C.): thermodynamically more stable form than Type A/B/D; also recorded: more stable anhydrous form among Type A/B/D/F
